Assay: Stability of Form M2 on storage, polymorph checked by PXRD
Type: physicochemical
Protocol: In one aspect, the present invention provides crystalline ixazomib citrate form M1. The ixazomib citrate forms of the present invention, including form M1, prepared by methods disclosed herein, may be characterized by PXRD. Therefore samples of each ixazomib citrate form (including amorphous, M1, M2, M3, and M4) were analyzed by PXRD on a BRUKER D-8 Discover powder diffractometer equipped with a goniometer of θ/2θ configuration and Lynx Eye detector. The Cu-anode X-ray tube was operated at 40 kV and 30 mA. The experiments were conducted over the 2θ range of 2.0°-50.0°, 0.030° step size, and 0.4 seconds step time.

CC(C)C[C@H](NC(=O)CNC(=O)c1cc(Cl)ccc1Cl)B1OC(=O)C(CC(=O)O)(CC(=O)O)O1 [Form M2, 2,2′-{2-[(1R)-1-({[(2,5-dichlorobenzoyl)amino]acetyl}amino)-3-methylbutyl]-5-oxo-1,3,2-dioxaborolane-4,4-diyl}diacetic acid]
Long-term physical stability (change in PXRD pattern) (1, 3 and 6 months stored at 5±3° C., at 25° C./60% and at 40° C./75% relative humidity (RH)): does not show any change in PXRD pattern
Polymorph by PXRD (at 5 ± 3° C., 1 month): Form M2
Polymorph by PXRD (at 5 ± 3° C., 3 months): Form M2
Polymorph by PXRD (at 5 ± 3° C., 6 months): Form M2
Polymorph by PXRD (at 5 ± 3° C., Initial): Form M2
Polymorph by PXRD (at 25° C./60% RH, 1 month): Form M2
Polymorph by PXRD (at 25° C./60% RH, 3 months): Form M2
Polymorph by PXRD (at 25° C./60% RH, 6 months): Form M2
Polymorph by PXRD (at 25° C./60% RH, Initial): Form M2
Polymorph by PXRD (at 40° C./75% RH, 1 month): Form M2
Polymorph by PXRD (at 40° C./75% RH, 3 months): Form M2
Polymorph by PXRD (at 40° C./75% RH, 6 months): Form M2
Polymorph by PXRD (at 40° C./75% RH, Initial): Form M2

— US20180282351A1, “Amorphous Ixazomib Citrate” (Mylan Laboratories Ltd, priority 2015, published 2018)
